The subject of experiment [1] is p16INK4a mRNA. Put plainly: qPCR of p16INK4a mRNA in Doxo treated mDFs. The experiment is classed as cell-based, mouse. As to conditions: 250 nM Doxo for 24 hours; day 1, 5, 14; normalized to β-actin, vs DMSO. On the procedure:
As shown, mDFs undergo senescence upon 250 nM of Doxo treatment for 24 hours (Day 0). Real-time quantitative PCR (qPCR) was performed on RNA samples isolated from DMSO treated NS (Non-Senescent) mDF cells or Doxo treated SEN (Senescent) mDF cells at day 1, 5, and 14 after Doxo treatment. The amount of mRNA was normalized to the level of β-actin (see, e.g., Demaria et al. (2017) Cancer Discovery, 2: 165-176; and references cited therein). Relative levels of p16INK4a mRNA for DMSO and Doxo treated mDFs was measured. The average value of DMSO is expressed as 1. (Mean+/−SE, n=4, **p<0.01, ****p<0.0001 by Dunnett's multiple comparisons test vs DMSO).

Experiment [2] deals with CRYAB mRNA. Put plainly: qPCR of CRYAB mRNA in Doxo treated mDFs. The experiment is classed as cell-based, mouse. Conditions: Doxo treated SEN mDFs day 1, 5, 14; normalized to β-actin, vs DMSO. Here is the method: Real-time quantitative PCR (qPCR) was performed on RNA samples isolated from DMSO treated NS mDF cells or Doxo treated SEN mDF cells at day 1, 5, and 14 after Doxo treatment. The amount of mRNA was normalized to the level of β-actin (see, e.g., Demaria et al. (2017) Cancer Discovery, 2: 165-176; and references cited therein). Relative levels of CRYAB mRNA for DMSO and Doxo treated mDFs was measured. The average value of DMSO is expressed as 1. (Mean+/−SE, n=4, *p<0.05, ***p<0.001 by Dunnett's multiple comparisons test vs DMSO).

The test system of experiment [3] is p16INK4a mRNA. The experiment in a line: qPCR of p16INK4a mRNA in Doxo treated FAPs. Format: cell-based, mouse. Conditions: 250 nM Doxo for 24 hours; normalized to β-actin, vs DMSO. On the procedure: As shown, FAPs undergo senescence upon 250 nM of Doxo treatment for 24 hours (Day 0). The mRNA was extracted from DMSO treated NS or Doxo treated SEN FAPs at indicated time points and quantified by qPCR. The amount of mRNA was normalized to the level of β-actin. The graphs show the relative levels of p16INK4a mRNA for DMSO and Doxo treated samples. The average value of DMSO is expressed as 1 (Mean+/−SE, n=3, *p<0.05 by Dunnett's multiple comparisons test vs DMSO).
A general note: In qPCR the cycle at which signal appears reflects the starting amount.

For experiment [4], the system named is CRYAB mRNA. Put plainly: qPCR of CRYAB mRNA in Doxo treated FAPs. Conditions: 250 nM doxorubicin 24 hrs; normalized to β-actin, vs DMSO. Format: cell-based, mouse. Here is the method:
The cells were treated with 250 nM doxorubicin and incubated for 24 hrs (Day 0). The mRNA was extracted from DMSO treated NS or Doxo treated SEN FAPs at the indicated time points and quantified by qPCR. The amount of mRNA was normalized to the level of β-actin mRNA. The average value of DMSO is expressed as 1 (Mean+/−SE, n=3, **p<0.01 and ***p<0.001 by Dunnett's multiple comparisons test vs DMSO).

Another experiment deals with senescent cells. Put plainly: Evaluation of senolytic effects of 25HC, oxysterols and 25HC analogs in cell culture. The experiment is classed as cell-based. As to conditions: cell type not stated. The text has this: Genetic knockdown of this gene kills senescent cells.
There are some commercially available analogs of 25HC such as oxysterols (Griffiths et al. (2019) Biochem Soc Trans., 47: 517-526).

The next experiment deals with T1, CRYAB protein (Homo sapiens, UniProt P02511).
T1 sequence (P02511 1-175): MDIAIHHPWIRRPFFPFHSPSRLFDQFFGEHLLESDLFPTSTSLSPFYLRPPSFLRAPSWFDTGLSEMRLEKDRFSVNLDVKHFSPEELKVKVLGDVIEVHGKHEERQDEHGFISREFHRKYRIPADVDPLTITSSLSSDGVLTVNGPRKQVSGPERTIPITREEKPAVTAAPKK
Put plainly: Inhibition of CRYAB protein aggregation. Conditions: stated with reference to Example 1; no aggregation test described.

Experiment [5] relates to senescent human fetal lung fibroblast (IMR-90). Put plainly: Cell viability assay (Cell Counting Kit-8) on NS and SEN IMR-90 cells. The experiment is classed as cell-based. As to conditions: treatment started immediately after removing DMSO/250 nM Doxo; 72 hrs; normalized to DMSO. Here is the method: Panel A) Timeline for DMSO/250 nM Doxo treatment and early-time point timeline for 24(S)-HC and 27HC treatment on NS and SEN cells. 24(S)HC and 27HC treatment were started immediately after removing DMSO/Doxo. Panel B) and C) Cell viability assay were performed on NS and SEN cells treated with different concentrations of 24(S)HC and 27HC, respectively. 24(S)HC and 27HC treatment were done for 72 hrs. The cell viability was analyzed by Cell Counting Kit-8 according to the manufactures' protocol using Spectra Max 190 (Molecular Devices). The value was normalized to that of DMSO. (Mean+/−SE, n=3, *p<0.05, **p<0.01 and ***p<0.001 by student's t-test).

The structures appear in SMILES notation. Entries after “also recorded” stand apart in the source; their conditions may differ.

`COc1cccc2c1C(=O)c1c(O)c3c(c(O)c1C2=O)C[C@@](O)(C(=O)CO)C[C@@H]3O[C@H]1C[C@H](N)[C@H](O)[C@H](C)O1` [Doxo, doxorubicin]: the “Relative level of p16INK4a mRNA in mDFs” value with p16INK4a mRNA [1] was “induces senescence marker, p16INK4a”. Also, the “Relative level of CRYAB mRNA in mDFs” value in the experiment on CRYAB mRNA [2] is given as “upregulated CRYAB”. In the experiment on p16INK4a mRNA [3], the “Relative level of p16INK4a mRNA in FAPs” value is “induced senescence”. In addition, the “Relative level of CRYAB mRNA in FAPs” value with CRYAB mRNA [4] is recorded as “significantly increased”.

In the case of `CC(C)CC[C@@H](O)[C@@H](C)[C@H]1CC[C@H]2[C@@H]3CC=C4C[C@@H](O)CC[C@]4(C)[C@H]3CC[C@]12C` [22(R)HC, 22(R)-Hydroxycholesterol], the Senolytic effect entry with senescent cells was “novel senolytics”. Besides, the “Inhibition of CRYAB protein aggregation (as asserted in the description)” value (from here on “Inhibition of CRYAB protein aggregation”) at CRYAB protein was “effective inhibitors of CRYAB protein aggregation”.

In the case of `C[C@H](CCCC(C)(C)O)[C@H]1CC[C@H]2[C@@H]3[C@H](O)C=C4C[C@@H](O)CC[C@]4(C)[C@H]3CC[C@]12C` [7α,25-Dihydroxycholesterol], the Senolytic effect entry in the experiment with senescent cells is given as “novel senolytics”. Further, the “Inhibition of CRYAB protein aggregation” value on CRYAB protein is listed as “effective inhibitors of CRYAB protein aggregation”.

For `C[C@@H](CCCC(C)(O)c1ccccc1)C1CCC2C3CC=C4C[C@H](O)CC[C@@]4(C)C3CC[C@]21C` (relative stereo) [rel-(3R,10S,13S)-17-[(2S)-6-hydroxy-6-phenylheptan-2-yl]-10,13-dimethyl-2,3,4,7,8,9,10,11,12,13,14,15,16,17-tetradecahydro-1H-cyclopenta[a]phenanthren-3-ol], in the experiment on senescent cells, the Senolytic effect entry is given as “novel senolytics”. In addition, the “Inhibition of CRYAB protein aggregation” value on CRYAB protein is “effective inhibitors of CRYAB protein aggregation”.

In the case of `C[C@@H](CO)CCC[C@@H](C)[C@H]1CC[C@H]2[C@@H]3CC=C4C[C@@H](O)CC[C@]4(C)[C@H]3CC[C@]12C` [27HC, 27-Hydroxycholesterol], the “Cell viability of NS and SEN IMR-90 cells, early-time point” value in experiment [5] is reported as “specifically kill senescent human fetal lung fibroblast; also recorded: specifically kill senescent IMR-90 cells”. Further, the Senolytic effect result with senescent cells is on record as “novel senolytics”. Further, the “Inhibition of CRYAB protein aggregation” value at CRYAB protein is given as “effective inhibitor of CRYAB protein aggregation”.

As for `CC(=O)CCC[C@@H](C)[C@H]1CC[C@H]2[C@@H]3CC=C4C[C@@H](O)CC[C@]4(C)[C@H]3CC[C@]12C` [27-Nor-25-ketocholesterol], the Senolytic effect entry in the experiment with senescent cells is reported as “novel senolytics”. Further, at CRYAB protein, the “Inhibition of CRYAB protein aggregation” value is recorded as “effective inhibitors of CRYAB protein aggregation”.

As to `C=C1CC[C@@H](O)CC1=C/C=C1\CCC[C@]2(C)[C@@H]([C@H](C)CCCC(C)(C)O)CC[C@@H]12` [Calcifediol 25-Hydroxyvitamin D3, reference compound], in the experiment on senescent cells, the Senolytic effect entry was “novel senolytics”. At CRYAB protein, the “Inhibition of CRYAB protein aggregation” value is listed as “effective inhibitors of CRYAB protein aggregation”.

For the compound `CC(C)CCC[C@@H](C)[C@H]1CC[C@H]2[C@@H]3[C@@H](O)C=C4C[C@@H](O)CC[C@]4(C)[C@H]3CC[C@]12C` [7βHC, 7β-Hydroxycholesterol], the Senolytic effect entry in the experiment with senescent cells is “novel senolytics”. On CRYAB protein, the “Inhibition of CRYAB protein aggregation” value is recorded as “effective inhibitors of CRYAB protein aggregation”.

Turning to `C[C@H](CCC(=O)O)[C@H]1CCC2[C@@H]3CC=C4C[C@H](O)CC[C@]4(C)C3CC[C@@]21C` (stereo partly drawn) [(3alpha,9xi,14xi)-3-hydroxychol-5-en-24-oic acid], the Senolytic effect result in the experiment on senescent cells is listed as “novel senolytics”. In addition, the “Inhibition of CRYAB protein aggregation” value on CRYAB protein is on record as “effective inhibitors of CRYAB protein aggregation”.

For `CC(C)[C@@H](O)CC[C@@H](C)[C@H]1CC[C@H]2[C@@H]3CC=C4C[C@@H](O)CC[C@]4(C)[C@H]3CC[C@]12C` [24(S)HC, 24(S)-Hydroxycholesterol], in experiment [5], the “Cell viability of NS and SEN IMR-90 cells, early-time point” value was “specifically kill senescent human fetal lung fibroblast; also recorded: specifically kill senescent IMR-90 cells”. Moreover, the Senolytic effect result in the experiment on senescent cells is “novel senolytics”. The “Inhibition of CRYAB protein aggregation” value at CRYAB protein is “effective inhibitor of CRYAB protein aggregation”.

As to `CC(C)CCC[C@@H](C)[C@H]1CC[C@H]2[C@@H]3[C@H](O)C=C4C[C@@H](O)CC[C@]4(C)[C@H]3CC[C@]12C` [7αHC, 7α-Hydroxycholesterol], the Senolytic effect entry in the experiment with senescent cells is recorded as “novel senolytics”. For the same compound, on CRYAB protein, the “Inhibition of CRYAB protein aggregation” value was “effective inhibitors of CRYAB protein aggregation”.

`CC(CCCN(C)C)C1CCC2C3CC=C4C[C@@H](O)CC[C@]4(C)C3CC[C@]12C` (stereo partly drawn) [(3S,10R,13R)-17-(5-(dimethylamino)pentan-2-yl)-10,13-dimethyl-2,3,4,7,8,9,10,11,12,13,14,15,16,17-tetradecahydro-1H-cyclopenta[a]phenanthren-3-ol]: the Senolytic effect result in the experiment on senescent cells is reported as “novel senolytics”. The “Inhibition of CRYAB protein aggregation” value at CRYAB protein is given as “effective inhibitors of CRYAB protein aggregation”.
